We go through one molecule from patent publication US8629144B2, “Polymorphic and hydrate forms, salts and process for preparing 6-{difluoro[6-(1-methyl-1H-pyrazol-4-yl)[1,2,4]triazolo[4,3-b]pyridazin-3-yl]methyl}quinoline” (Janssen Pharmaceutica NV, priority 2007, dated 2014).

Assay [1] deals with U87MG tumors. In words: U87MG glioblastoma tumour xenograft model. The class given is in vivo, athymic nude mice. The note with it: for Decrease of mean tumor volume: Day 12, p<0.01. The procedure: The U87MG glioblastoma cell line (Piedmont Research Center LLC) expresses the c-Met receptor and responds to […] (HGF). This study investigated whether treatment with an inhibitor of c-Met is efficacious against the U87MG glioblastoma tumor xenograft model. This study utilized a tumor growth inhibition (TGI) assay to test per os (p.o.) compound monotherapy in groups of fifteen nude mice. A control group was treated with vehicle, 20% Hydroxypropyl Beta-Cyclodextrin (HPBCD). All treatments began on Day 1 (D1) in mice bearing established subcutaneous (s.c.) U87MG tumors.
Female athymic nude mice (Harlan) were 10-11 weeks old with a BW range of 18.1-25.0 g on D1 of the study. The animals were fed ad libitum water (reverse osmosis, 1 ppm Cl) and NIH 31 Modified and Irradiated Lab Diet® consisting of 18.0% crude protein, 5.0% crude fat, and 5.0% crude fiber. The mice were housed on irradiated ALPHA-Dri® bed-o-cobs® Laboratory Animal Bedding in static microisolators on a 12-hour light cycle at 21-22° C. (70-72° F.) and 40-60% humidity. All animals were housed in a Laboratory Animal Medicine facility that is fully accredited by the American Association for Assessment and Accreditation of Laboratory Animal Care (AAALAC). All procedures involving animals were conducted in compliance with the NIH Guide for the Care and Use of Laboratory Animals and all protocols were approved by an Internal Animal Care and Use Committee (IACUC).
Xenografts were initiated from U87MG human glioblastoma tumor fragments maintained by serial transplantation in athymic nude mice. Each test mouse received a subcutaneous U87MG tumor fragment (1 mm^3) implanted in the right flank, and the growth of tumors was monitored as the average size approached 200 mm^3. Twelve days later, on Day 1 of the study, the animals were sorted into 4 groups (n=12-15 mice/group) with individual tumor volumes ranging from 172-352 mm^3 and group mean tumor volumes of 216 mm^3. Tumor volume was calculated using the formula: […]
Dosing solutions of compounds of the present invention were prepared fresh weekly in a vehicle consisting of 20% Hydroxypropyl Beta-Cyclodextrin (HPBCD) in water. In all groups, the dosing volume of 0.2 mL/20-g mouse was scaled to the body weight of each animal. Doses were given to allow for the HCl salt form of the compound.
TGI was calculated from the difference between the median tumor volumes of vehicle-treated and drug-treated mice, expressed as a percentage of the median tumor volume of the vehicle-treated control group, by the following relation:
The MTV (n) is defined as the median tumor volume (MTV) for the number of animals, n, remaining in the study on that day.
Animals were weighed daily for the first five days of the study and then twice weekly. The mice were examined frequently for overt signs of any adverse, drug-related side effects, and clinical signs of toxicity were recorded when observed. Acceptable toxicity is defined as a group mean body-weight (BW) loss of less than 20% during the study, and not more than one treatment-related (TR) death among ten animals. A death is classified as TR if it is attributable to treatment side effects as evidenced by clinical signs and/or necropsy, or due to unknown causes during the dosing period or within 10 days of the last dose. A death is classified as non treatment-related (NTR) if there is no evidence that the death was related to drug side effects. […]

The target in assay [2] is T1, c-Met kinase (Homo sapiens, UniProt P08581).
T1 construct: His-6 (N); purchased Panvera Lot 40047X; host or cells: Sf9 insect cells (baculovirus), for the His6-MetKin construct scaled up at Pan Vera
In words: c-Met autophosphorylation assay with radioactive ATP. The note with it: [33P]-γ-ATP, 60 min room temperature, read-out: IC50 for c-Met kinase inhibition. It counts as biochemical. The procedure: The present autophosphorylation assay uses radioactive ATP to measure the incorporation of phosphate upon c-Met autophosphorylation. The assay procedure for screening is as follows.
c-Met enzyme (purchased from Panvera, Lot 40047X, 2.4 mg/ml); “Assay buffer” (13.3 mM MOPS pH 7; 0.33 mM EDTA); “Enzyme buffer” (20 mM MOPS pH 7; 1 mM EDTA; 0.01% Brij 35; 5% glycerol; 0.1% beta mercapto-EtOH); 100 mM MgAc; 3% phosphoric acid; 75 mM phosphoric acid; 1 mM ATP-stock; [^33P]-γ-ATP (NEN, NEG602H); round-bottom 96-well plates (Corning, 3799); Filtermat P30-filters (Perkin Elmer); “Enzyme mix” (698.80 μl of Enzyme buffer as above+1.17 μl of c-Met enzyme as above); “Substrate mix” (946.00 μl of 100 mM MgAc+50.00 μl ATP (0.1 mM)+4.00 μl [^33P]-γ-ATP as above).
• 1. Distribute 15 μl assay buffer per well. • 2. Add 0.5 μl dilution of tested c-Met inhibitor (e.g., compound (I) or its forms or salts) in DMSO. • 3. Add 5 μl Enzyme mix per well (control: Enzyme buffer in blanc). • 4. Add 5 μl Substrate mix per well. • 5. Incubate at room temperature for 60 min. • 6. Stop reaction with 3% phosphoric acid, 5 μl per well • 7. Shake plate • 8. Spot 5 μl from a well to filtermat P30. • 9. […] Expose the filter to phosphor storage cassette overnight on low energy phosphor storage plate, and detect and quantify the signal using a suitable phosphorimager (herein, Typhoon) Results

For assay [3], the system named is S114 tumors. In words: S114 tumor model. The class given is in vivo, athymic nude mice. Conditions: 100 mg/kg p.o. q.d., four consecutive days. As to the method: Female athymic nude mice (CD-1, nu/nu, 9-10 weeks old) were obtained from Charles River Laboratories (Wilmington, Mass.) and were maintained according to NIH standards. All mice were group housed (5 mice/cage) under clean-room conditions in sterile micro-isolator cages on a 12-hour light/dark cycle in a room maintained at 21-22° C. and 40-50% humidity. Mice were fed irradiated standard rodent diet and water ad libitum. All animals were housed in a Laboratory Animal Medicine facility that is fully accredited by the American Association for Assessment and Accreditation of Laboratory Animal Care (AAALAC). All procedures involving animals were conducted in compliance with the NIH Guide for the Care and Use of Laboratory Animals and all protocols were approved by an Internal Animal Care and Use Committee (IACUC).
The murine NIH 3T3 derived cell line S114, which has been engineered to over-express both […] (HGF) and the human c-Met receptor, was propagated in DMEM media (Life Technologies, Bethesda, Md.). Immediately prior to injection, cells were washed counted and resuspended in PBS. Female athymic nude mice weighing no less than 20-21 grams were inoculated subcutaneously in the left inguinal region of the thigh with 5×10^6 cells in a delivery volume of 0.1 mL. Tumors were allowed to grow to for five days.
Mice were dosed orally at 100 mg/kg compound in 20% HPBCD or with vehicle (20% HPBCD, control group). Dosing was continued for 4 consecutive days. Compounds of the invention were prepared fresh daily as a clear solution in 20% HPBCD and administered as described above. Body weight was measured at the end of the study and a loss of body weight >10% was used as an indication of lack of compound tolerability. Unacceptable toxicity was defined as body weight loss >20% during the study. Mice were closely examined daily at each dose for overt clinical signs of adverse, drug-related side effects.
On the day of study termination, a final tumor volume and final body weight were obtained on each animal. […]

The structures appear in SMILES notation. Several values for one entry are separate records, joined by “and”; a condition that tells them apart may be missing. Equal entries are not always repeated.

T1 sequence (P08581 956-1390 limits assumed): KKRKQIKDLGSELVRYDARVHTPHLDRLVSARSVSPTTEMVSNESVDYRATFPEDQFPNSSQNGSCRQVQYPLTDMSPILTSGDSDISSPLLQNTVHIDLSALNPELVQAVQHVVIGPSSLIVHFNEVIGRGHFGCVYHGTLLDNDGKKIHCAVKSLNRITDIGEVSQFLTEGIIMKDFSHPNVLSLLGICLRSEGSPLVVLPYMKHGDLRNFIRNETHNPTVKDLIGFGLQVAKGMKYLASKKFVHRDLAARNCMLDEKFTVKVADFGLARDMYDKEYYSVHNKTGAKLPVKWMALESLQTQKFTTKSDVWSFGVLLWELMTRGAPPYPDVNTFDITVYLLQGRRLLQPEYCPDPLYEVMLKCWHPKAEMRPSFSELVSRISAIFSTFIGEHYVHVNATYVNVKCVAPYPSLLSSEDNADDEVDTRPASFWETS

In the case of `Cn1cc(-c2ccc3nnc(C(F)(F)c4ccc5ncccc5c4)n3n2)cn1` [Compound (I), 6-{difluoro[6-(1-methyl-1H-pyrazol-4-yl)[1,2,4]triazolo[4,3-b]pyridazin-3-yl]methyl}quinoline], the “Decrease of mean tumor volume” value was found to be 94% in assay [1] (25 mg/kg p.o. (q.d. day 1, b.i.d. to day 12)); 96% in assay [1] (50 mg/kg p.o. (b.i.d. 7 days, 24-hr pause, q.d. to day 12)); 97% in assay [1] (75 mg/kg p.o. (b.i.d. 7 days, 24-hr pause, q.d. to day 12)). Besides, in assay [1] (p.o. 25, 50 and 75 mg/kg, all doses, p<0.01), the “Tumor growth inhibition of U87MG tumors” value was “statistically significant”. In addition, the Tumor regression result in assay [1] (p.o. 25, 50 and 75 mg/kg, all three doses) is listed as “Tumor regression was also observed”. Moreover, the IC50 in assay [2] is roughly 7.01 nM. Moreover, the “S114 tumor regression, mice responding” value in assay [3] is on record as “regressed in all five mice”. Moreover, the “Mice with tumors regressed to non-palpable, non-detectable” value in assay [3] (end of study) is recorded as “three of the five mice”. Further, in assay [3] (individual mice), the Final tumour weights is 0.017 g (2×) and no tumour (3×).
